Laboratory results: patent US20050101595A1, “N-containing cycloalkyl-substituted amino-thiazole derivatives and pharmaceutical compositions for inhibiting cell proliferation and methods for their use” (PFIZER INC., priority 2003, published 2005)

Assays:
CDK2/Cyclin A = CDK2/Cyclin A (Homo sapiens, UniProt P24941); assay: Inhibition of CDK2/Cyclin A Retinoblastoma Kinase Activity; format: biochemical; conditions: 0.03 μM compound
Procedure, shortened: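 Radiometric filter-binding readout of phosphate transfer to an Rb substrate fragment by purified CDK2/truncated cyclin A at 10 or 19 nM. Run at pH 7.4 with 25 μM ATP, 30 °C, 60–75 min, linear rates; background without enzyme subtracted, Ki from competitive-inhibition models.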

[1] = target: human CDK4 and genetically truncated (1-264) cyclin D3 (Homo sapiens, UniProt P11802); assay: Inhibition of CDK4/Cyclin D Retinoblastoma Kinase Activity; format: biochemical; conditions: 0.03 μM compound
human CDK4 and genetically truncated (1-264) cyclin D3, sequence (P11802 whole entry, the tested form may be a part): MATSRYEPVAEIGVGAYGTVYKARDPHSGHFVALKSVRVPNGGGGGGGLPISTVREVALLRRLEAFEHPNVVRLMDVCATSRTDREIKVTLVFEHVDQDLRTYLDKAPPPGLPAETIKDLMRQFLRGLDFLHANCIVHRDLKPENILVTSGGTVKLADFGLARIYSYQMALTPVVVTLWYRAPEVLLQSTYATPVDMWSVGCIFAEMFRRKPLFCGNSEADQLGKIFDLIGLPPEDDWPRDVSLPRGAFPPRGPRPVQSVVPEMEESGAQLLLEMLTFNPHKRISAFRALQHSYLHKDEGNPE
human CDK4 and genetically truncated (1-264) cyclin D3, sequence (P30281 1-264 partner): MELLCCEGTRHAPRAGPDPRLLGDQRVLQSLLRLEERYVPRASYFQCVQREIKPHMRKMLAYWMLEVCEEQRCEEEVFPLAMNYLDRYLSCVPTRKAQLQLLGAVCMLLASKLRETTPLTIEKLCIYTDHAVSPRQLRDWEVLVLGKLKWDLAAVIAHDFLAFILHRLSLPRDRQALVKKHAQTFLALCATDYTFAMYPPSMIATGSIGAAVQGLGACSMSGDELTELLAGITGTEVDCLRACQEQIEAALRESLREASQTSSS
Procedure, shortened: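 Apparent Ki values come from competitive or competitive tight-binding inhibition fits of background-corrected 32P/33P incorporation into His-tagged Rb fragment (386-928), captured on nitrocellulose. Reaction: 5 nM insect-cell-expressed human CDK4 with cyclin D3 (1-264), 25 μM ATP, pH 7.4 HEPES, 2% DMSO, 30° C., 20 min, extended to 60 min for tight-binding inhibitors.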

HCT-116 cell line = assay: Inhibition of cell growth, tetrazolium salt (MTT) assay; format: cell-based; conditions: HCT-116; for HCT-116 % Inhibition at 0.1 μM: 0.1 μM compound; for HCT-116 % Inhibition at 0.25 μM: 0.25 μM compound
Procedure, shortened: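 Growth inhibition is scored relative to cells receiving only 0.5% (v/v) DMSO. Plated cells rest 4 h, then take compound for three to five days at 37° C; MTT reduction to formazan is read at 540 nm.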

CDK2 % Inhibition at 0.03 μM (CDK2/Cyclin A; Table 3) [%]	CDK4 % Inhibition at 0.03 μM ([1]; Table 3) [%]	CDK2 % Inhibition at 0.03 μM (CDK2/Cyclin A; Table 4) [%]	CDK4 % Inhibition at 0.03 μM ([1]; Table 4) [%]	Compound	HCT-116 % Inhibition at 0.1 μM (HCT-116 cell line; Table 3) [%]	HCT-116 % Inhibition at 0.25 μM (HCT-116 cell line; Table 3) [%]	HCT-116 % Inhibition at 0.1 μM (HCT-116 cell line; Table 4) [%]	HCT-116 % Inhibition at 0.25 μM (HCT-116 cell line; Table 4) [%]
71	66	–	–	COC(=O)c1sccc1S(=O)(=O)N1CCC(Nc2nc(N)c(C(=O)c3c(F)cccc3F)s2)CC1 [Example P63]	23	40	–	–
80	81	–	–	Nc1nc(NC2CCN(S(=O)(=O)c3ccc(-c4ccon4)s3)CC2)sc1C(=O)c1c(F)cccc1F [Example P64]	13	31	–	–
48	65	–	–	Nc1nc(NC2CCN(S(=O)(=O)c3ccc(-c4ccccc4)cc3)CC2)sc1C(=O)c1c(F)cccc1F [Example P65]	6	31	–	–
55	57	–	–	Nc1nc(NC2CCN(S(=O)(=O)c3ccc(CNC(=O)c4ccc(Cl)cc4)s3)CC2)sc1C(=O)c1c(F)cccc1F [Example P66]	12	34	–	–
−8	22	–	–	Nc1nc(NC2CCN(S(=O)(=O)c3c(F)cccc3F)CC2)sc1C(=O)c1c(F)cccc1F [Example P67]	9	25	–	–
72	70	–	–	Nc1nc(NC2CCN(S(=O)(=O)c3ccc(CBr)cc3)CC2)sc1C(=O)c1c(F)cccc1F [Example P68]	8	25	–	–
−2	21	–	–	Cc1c(S(=O)(=O)N2CCC(Nc3nc(N)c(C(=O)c4c(F)cccc4F)s3)CC2)sc2ccc(Cl)cc12 [Example P69]	13	30	–	–
37	60	–	–	COC(=O)c1csc(S(=O)(=O)N2CCC(Nc3nc(N)c(C(=O)c4c(F)cccc4F)s3)CC2)c1OC [Example P70]	14	27	–	–
57	52	–	–	N#Cc1ccc(S(=O)(=O)N2CCC(Nc3nc(N)c(C(=O)c4c(F)cccc4F)s3)CC2)c(Cl)c1 [Example P71]	13	21	–	–
61	61	–	–	CSc1nccc(-c2ccc(S(=O)(=O)N3CCC(Nc4nc(N)c(C(=O)c5c(F)cccc5F)s4)CC3)s2)n1 [Example P72]	13	35	–	–
−28	1	–	–	CCCCOc1ccc(C(C)(C)CC(C)(C)C)cc1S(=O)(=O)N1CCC(Nc2nc(N)c(C(=O)c3c(F)cccc3F)s2)CC1 [Example P73]	16	30	–	–
−30	4	–	–	CCCCOc1ccc(C(C)(C)CC)cc1S(=O)(=O)N1CCC(Nc2nc(N)c(C(=O)c3c(F)cccc3F)s2)CC1 [Example P74]	19	27	–	–
60	79	–	–	Nc1nc(NC2CCN(S(=O)(=O)c3ccc(Cl)c4nonc34)CC2)sc1C(=O)c1c(F)cccc1F [Example P75]	27	43	–	–
9	33	–	–	Nc1nc(NC2CCN(S(=O)(=O)CCc3cccc4ccccc34)CC2)sc1C(=O)c1c(F)cccc1F [Example P76]	23	–	–	–
19	43	–	–	N#Cc1cccc(S(=O)(=O)N2CCC(Nc3nc(N)c(C(=O)c4c(F)cccc4F)s3)CC2)c1 [Example P77]	21	20	–	–
17	24	–	–	CCc1cc(Br)ccc1S(=O)(=O)N1CCC(Nc2nc(N)c(C(=O)c3c(F)cccc3F)s2)CC1 [Example P78]	27	23	–	–

CDK2 % Inhibition at 0.03 μM (CDK2/Cyclin A; Table 3) [%]	CDK4 % Inhibition at 0.03 μM ([1]; Table 3) [%]	CDK2 % Inhibition at 0.03 μM (CDK2/Cyclin A; Table 4) [%]	CDK4 % Inhibition at 0.03 μM ([1]; Table 4) [%]	Compound	HCT-116 % Inhibition at 0.1 μM (HCT-116 cell line; Table 3) [%]	HCT-116 % Inhibition at 0.25 μM (HCT-116 cell line; Table 3) [%]	HCT-116 % Inhibition at 0.1 μM (HCT-116 cell line; Table 4) [%]	HCT-116 % Inhibition at 0.25 μM (HCT-116 cell line; Table 4) [%]
53	44	–	–	Nc1nc(NC2CCN(S(=O)(=O)c3c(Cl)nc4sccn34)CC2)sc1C(=O)c1c(F)cccc1F [Example P79]	10	18	–	–
81	73	–	–	CS(=O)(=O)c1ccc(S(=O)(=O)N2CCC(Nc3nc(N)c(C(=O)c4c(F)cccc4F)s3)CC2)cc1 [Example P80]	15	29	–	–
−5	36	–	–	CS(=O)(=O)c1ccccc1S(=O)(=O)N1CCC(Nc2nc(N)c(C(=O)c3c(F)cccc3F)s2)CC1 [Example P81]	12	19	–	–
−23	12	–	–	Nc1nc(NC2CCN(S(=O)(=O)c3c(Cl)cc(C(F)(F)F)cc3Cl)CC2)sc1C(=O)c1c(F)cccc1F [Example P82]	17	24	–	–
−11	25	–	–	[N-]=[N+]=C1C=C(S(=O)(=O)N2CCC(Nc3nc(N)c(C(=O)c4c(F)cccc4F)s3)CC2)c2ccccc2C1=O [Example P83]	10	26	–	–
28	38	–	–	Nc1nc(NC2CCN(S(=O)(=O)c3ccc(Oc4ccccc4)cc3)CC2)sc1C(=O)c1c(F)cccc1F [Example P84]	10	26	–	–
−28	14	–	–	Nc1nc(NC2CCN(S(=O)(=O)c3ccc(Oc4ccncc4)cc3)CC2)sc1C(=O)c1c(F)cccc1F [Example P85]	12	26	–	–
38	51	–	–	Nc1nc(NC2CCN(S(=O)(=O)c3ccc(Oc4ccc(I)cc4)cc3)CC2)sc1C(=O)c1c(F)cccc1F [Example P86]	7	26	–	–
−25	−5	–	–	Nc1nc(NC2CCN(S(=O)(=O)c3ccc(Sc4ccncc4)cc3)CC2)sc1C(=O)c1c(F)cccc1F [Example P87]	9	22	–	–
44	49	–	–	Cc1ccc2cc(S(=O)(=O)N3CCC(Nc4nc(N)c(C(=O)c5c(F)cccc5F)s4)CC3)ccc2c1 [Example P88]	7	34	–	–
–	–	−7	31	CN(C(=O)N1CCC(Nc2nc(N)c(C(=O)c3c(F)cccc3F)s2)CC1)c1ccccc1 [Example Q1]	–	–	0	38
–	–	−43	13	CN(C)C(=O)N1CCC(Nc2nc(N)c(C(=O)c3c(F)cccc3F)s2)CC1 [Example Q2]	–	–	0.71	43
–	–	−43	11	CCN(CC)C(=O)N1CCC(Nc2nc(N)c(C(=O)c3c(F)cccc3F)s2)CC1 [Example Q3]	–	–	0	42
–	–	−32	24	Nc1nc(NC2CCN(C(=O)OCc3ccccc3)CC2)sc1C(=O)c1c(F)cccc1F [Example Q6]	–	–	9	38
–	–	−42	5	CCCCC(CC)COC(=O)N1CCC(Nc2nc(N)c(C(=O)c3c(F)cccc3F)s2)CC1 (stereo not drawn) [Example Q7]	–	–	5	39
–	–	−13	15	CCOC(=O)N1CCC(Nc2nc(N)c(C(=O)c3c(F)cccc3F)s2)CC1 [Example Q8]	–	–	6	45

Compound	CDK2 % Inhibition at 0.03 μM (CDK2/Cyclin A; Table 3) [%]	CDK4 % Inhibition at 0.03 μM ([1]; Table 3) [%]	CDK2 % Inhibition at 0.03 μM (CDK2/Cyclin A; Table 4) [%]	CDK4 % Inhibition at 0.03 μM ([1]; Table 4) [%]	HCT-116 % Inhibition at 0.1 μM (HCT-116 cell line; Table 3) [%]	HCT-116 % Inhibition at 0.25 μM (HCT-116 cell line; Table 3) [%]	HCT-116 % Inhibition at 0.1 μM (HCT-116 cell line; Table 4) [%]	HCT-116 % Inhibition at 0.25 μM (HCT-116 cell line; Table 4) [%]
Nc1nc(NC2CCN(C(=O)Oc3ccccc3)CC2)sc1C(=O)c1c(F)cccc1F [Example Q4]	–	–	59	78	–	–	0	41
Nc1nc(NC2CCN(C(=O)Oc3ccc(Cl)cc3)CC2)sc1C(=O)c1c(F)cccc1F [Example Q5]	–	–	45	81	–	–	0.81	36
